Reference: patent US10077261B2, “Imidazolin-5-one derivative useful as FASN inhibitors for the treatment of cancer” (Janssen Pharmaceutica NV, priority 2012, dated 2018)

Tests used:
[1] = molecular target: Fatty Acid Synthase Keto-reductase Domain (FASN KR) (Homo sapiens, UniProt P49327); experiment: Fatty Acid Synthase keto-reductase domain (FASN KR) inhibition, NADPH oxidation at 340 nm
Method: After 20 minutes incubation at room temperature the plate was measured again (T2).
The decrease in absorbance was calculated as (Absorbance before incubation T1)−(Absorbance following incubation T2).
A plot of Controlmin versus test compound concentration was fitted to a 4-parameter logistic curve using a non-linear least squares regression method.

[2] = test system: PC-3M-Luc-C6 prostate cells; experiment: In vitro PC-3M-Luc-C6 prostate cell proliferation assay in lipid reduced medium; format: cell-based; conditions: 96 h, read-out: pIC50 PC-3M-Luc-C6 prostate cell (converted)
A2780 ovarian cells [3] = experiment: A2780 ovarian cell proliferation assay in lipid reduced medium, without palmitate (MTT); format: cell-based; conditions: Homo sapiens, A2780, 96 h; read-out: pIC50 A2780 Ovarian Cell, Without Palmitate (converted)
[4] = test system: LNCaP-Vancouver prostate cells; experiment: In vitro LNCaP Vancouver prostate cell proliferation assay in lipid reduced medium; format: cell-based; conditions: read-out: pIC50 LNCaP_Vancouver prostate cell (converted)
A2780 ovarian cells [5] = experiment: A2780 ovarian cell proliferation assay in lipid reduced medium, with palmitate (MTT); format: cell-based; conditions: Homo sapiens, A2780, 96 h; read-out: pIC50 A2780 Ovarian Cell, With Palmitate (converted)
Method in brief: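 In this palmitate-supplemented format, compound dilutions (30 μM down to 0.01 μM) are added to cells in lipid-reduced serum with 25 μM palmitate, 0.2% fatty-acid-free BSA and 0.25% ethanol. After four days (96 h) MTT absorbance at 544 nm is recorded and fitted by minimum sum of squares.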

[6] = molecular target: T1, hFASN enzyme (full length) (Homo sapiens, UniProt P49327); experiment: Fatty Acid Synthase (FASN) inhibition scintillation proximity assay; format: biochemical; conditions: for inhibition at 10 µM: read-out: Human FASN % inhibition @ 10 μM, 10 μM test compound; for IC50: read-out: Human FASN pIC50 (converted)
T1 construct: 10 μL hFASN enzyme (full length, 300 ng, purified in house); made in house
T1 sequence (P49327 whole entry): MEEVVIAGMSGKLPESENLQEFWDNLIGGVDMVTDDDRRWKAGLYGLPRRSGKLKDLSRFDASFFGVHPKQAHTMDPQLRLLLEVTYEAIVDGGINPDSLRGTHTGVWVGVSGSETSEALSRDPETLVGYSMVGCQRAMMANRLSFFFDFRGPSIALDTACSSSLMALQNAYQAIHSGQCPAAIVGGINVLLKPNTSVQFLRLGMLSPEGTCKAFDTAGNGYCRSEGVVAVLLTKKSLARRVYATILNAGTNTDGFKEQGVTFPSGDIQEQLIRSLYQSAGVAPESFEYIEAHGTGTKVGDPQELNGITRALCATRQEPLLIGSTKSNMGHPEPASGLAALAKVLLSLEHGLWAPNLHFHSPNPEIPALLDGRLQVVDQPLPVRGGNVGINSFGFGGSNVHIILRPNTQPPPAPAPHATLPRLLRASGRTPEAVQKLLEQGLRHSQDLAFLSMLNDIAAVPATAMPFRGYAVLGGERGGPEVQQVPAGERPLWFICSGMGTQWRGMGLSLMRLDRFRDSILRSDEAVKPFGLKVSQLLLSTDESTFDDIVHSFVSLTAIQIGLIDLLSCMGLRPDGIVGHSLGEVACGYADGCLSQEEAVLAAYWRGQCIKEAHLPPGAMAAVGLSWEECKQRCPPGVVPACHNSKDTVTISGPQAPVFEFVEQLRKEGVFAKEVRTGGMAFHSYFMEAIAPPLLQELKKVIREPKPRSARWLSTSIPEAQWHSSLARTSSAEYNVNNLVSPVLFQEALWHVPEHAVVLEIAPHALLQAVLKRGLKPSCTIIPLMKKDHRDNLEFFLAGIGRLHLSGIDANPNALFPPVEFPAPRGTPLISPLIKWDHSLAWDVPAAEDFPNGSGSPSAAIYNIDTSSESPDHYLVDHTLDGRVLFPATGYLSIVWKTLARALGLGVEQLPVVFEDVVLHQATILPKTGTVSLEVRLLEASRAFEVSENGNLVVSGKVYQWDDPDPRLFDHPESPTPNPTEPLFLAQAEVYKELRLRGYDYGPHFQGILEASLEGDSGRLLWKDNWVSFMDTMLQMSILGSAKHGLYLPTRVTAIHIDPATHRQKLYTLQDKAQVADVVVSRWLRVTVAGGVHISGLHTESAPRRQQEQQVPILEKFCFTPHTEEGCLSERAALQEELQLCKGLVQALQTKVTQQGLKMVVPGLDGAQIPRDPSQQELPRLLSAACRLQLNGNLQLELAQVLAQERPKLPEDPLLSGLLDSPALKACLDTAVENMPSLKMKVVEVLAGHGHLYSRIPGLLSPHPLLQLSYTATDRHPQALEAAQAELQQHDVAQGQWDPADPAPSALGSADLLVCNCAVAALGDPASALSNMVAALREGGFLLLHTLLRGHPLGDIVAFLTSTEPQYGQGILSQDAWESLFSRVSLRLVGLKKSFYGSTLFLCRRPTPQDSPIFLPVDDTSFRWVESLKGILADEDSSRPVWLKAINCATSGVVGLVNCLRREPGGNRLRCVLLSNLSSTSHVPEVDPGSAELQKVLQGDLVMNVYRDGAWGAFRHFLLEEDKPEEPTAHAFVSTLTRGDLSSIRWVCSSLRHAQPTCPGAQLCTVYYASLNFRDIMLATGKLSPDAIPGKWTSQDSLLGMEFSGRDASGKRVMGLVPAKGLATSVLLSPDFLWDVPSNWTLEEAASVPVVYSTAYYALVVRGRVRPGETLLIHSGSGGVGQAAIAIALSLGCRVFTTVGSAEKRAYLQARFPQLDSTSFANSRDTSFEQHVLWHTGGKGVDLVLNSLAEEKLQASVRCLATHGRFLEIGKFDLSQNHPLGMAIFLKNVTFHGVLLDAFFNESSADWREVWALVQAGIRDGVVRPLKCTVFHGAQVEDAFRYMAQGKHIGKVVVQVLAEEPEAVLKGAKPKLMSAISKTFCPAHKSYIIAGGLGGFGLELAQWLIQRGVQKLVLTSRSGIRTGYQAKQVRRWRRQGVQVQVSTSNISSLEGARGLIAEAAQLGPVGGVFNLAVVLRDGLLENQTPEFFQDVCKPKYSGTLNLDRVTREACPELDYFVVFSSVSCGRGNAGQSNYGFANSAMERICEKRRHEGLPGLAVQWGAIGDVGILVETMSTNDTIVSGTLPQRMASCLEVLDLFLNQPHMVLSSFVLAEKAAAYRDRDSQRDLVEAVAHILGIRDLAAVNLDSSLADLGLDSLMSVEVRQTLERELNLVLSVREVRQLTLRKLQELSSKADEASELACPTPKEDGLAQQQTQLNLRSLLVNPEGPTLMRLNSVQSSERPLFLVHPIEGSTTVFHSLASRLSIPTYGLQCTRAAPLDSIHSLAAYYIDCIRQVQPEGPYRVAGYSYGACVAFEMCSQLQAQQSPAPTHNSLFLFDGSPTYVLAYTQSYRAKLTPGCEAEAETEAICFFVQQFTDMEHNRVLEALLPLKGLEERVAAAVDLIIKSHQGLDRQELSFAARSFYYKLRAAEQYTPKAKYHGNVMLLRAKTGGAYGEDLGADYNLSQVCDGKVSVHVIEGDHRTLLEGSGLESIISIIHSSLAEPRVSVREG
Method in brief: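 Scintillation proximity format: in-house full-length enzyme, 300 ng per well, pH 7.5 phosphate/DTT buffer, ³H-acetyl-CoA and malonyl-CoA. Emission counted on LEADseeker at 610 nm at least 24 h after stopping.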

Chain of Fatty Acid Synthase Keto-reductase Domain (FASN KR) (P49327 whole entry, the tested form may be a part): as the sequence (P49327 whole entry) above

| Compound | IC50 [1] | IC50 [2] | IC50 (A2780 ovarian cells [3]) | IC50 [4] | IC50 (A2780 ovarian cells [5]) | inhibition at 10 µM [6] | IC50 [6] |
| --- | --- | --- | --- | --- | --- | --- | --- |
| O=C(C1CC1)N1CC[C@@H](CN2C(=O)C3(CC3)N=C2c2ccc(-c3ccc4cccc(F)c4c3)cc2F)C1 [compound 260, (R)-6-((1-(cyclopropanecarbonyl)pyrrolidin-3-yl)methyl)-5-(2-fluoro-4-(8-fluoronaphthalen-2-yl)phenyl)-4,6-diazaspiro[2.4]hept-4-en-7-one] | 37.2 nM | 37.2 nM | ~70.8 nM | 85.1 nM | > 10000 nM | 101% | 16.2 nM |
| O=C(C1CC1)N1CC(CN2C(=O)C3(CC3)N=C2c2ccc(-c3cccc(SC4CC4)c3)cc2F)C1 [compound 645, 6-{[1-(Cyclopropylcarbonyl)azetidin-3-yl]methyl}-5-[3′-(cyclopropylsulfanyl)-3-fluorobiphenyl-4-yl]-4,6-diazaspiro[2.4]hept-4-en-7-one] | 676 nM | 1740 nM | ~2040 nM | 3470 nM | > 10000 nM | 100% | 275 nM |
| COc1cccc2ccc(-c3ccc(C4=NC5(CC5)C(=O)N4CC4CN(C(=O)C5(O)CC5)C4)c(F)c3)cc12 [compound 375, 5-(2-fluoro-4-(8-methoxynaphthalen-2-yl)phenyl)-6-((1-(1-hydroxycyclopropanecarbonyl)azetidin-3-yl)methyl)-4,6-diazaspiro[2.4]hept-4-en-7-one] | 89.1 nM | 77.6 nM | 72.4 nM | 457 nM | > 10000 nM | 103% | 43.7 nM |
| Cn1nc(Cl)c2ccc(-c3ccc(C4=NC5(CC5)C(=O)N4CC4CN(C(=O)C5CC5)C4)c(F)c3)cc21 [compound 606, 5-[4-(3-Chloro-1-methyl-1H-indazol-6-yl)-2-fluorophenyl]-6-{[1-(cyclopropylcarbonyl)azetidin-3-yl]methyl}-4,6-diazaspiro[2.4]hept-4-en-7-one] | 1450 nM | 1120 nM | 1230 nM | 2400 nM | > 10000 nM | 97% | 209 nM |
| Cn1ncc2cc(-c3ccc(C4=NC5(CC5)C(=O)N4C[C@@H]4CCN(C(=O)C5(O)CC5)C4)c(F)c3)ccc21 [compound 370, (R)-5-(2-fluoro-4-(1-methyl-1H-indazol-5-yl)phenyl)-6-((1-(1-hydroxycyclopropanecarbonyl)pyrrolidin-3-yl)methyl)-4,6-diazaspiro[2.4]hept-4-en-7-one] | 40.7 nM | ~3.89 nM | ~2.4 nM | 20.4 nM | > 10000 nM | 100% | 28.8 nM |
| Cc1cc(-c2cccc(NS(=O)(=O)C3CC3)c2)ccc1C1=NC2(CC2)C(=O)N1CC1CN(C(=O)C2CC2)C1 [compound 578, N-[4′-(6-{[1-(Cyclopropylcarbonyl)azetidin-3-yl]methyl}-7-oxo-4,6-diazaspiro[2.4]hept-4-en-5-yl)-3′-methylbiphenyl-3-yl]cyclopropanesulfonamide] | 1550 nM | 871 nM | 331 nM | 5010 nM | > 10000 nM | 92% | 646 nM |
| N#Cc1cc2cc(-c3ccc(C4=NC5(CC5)C(=O)N4C[C@@H]4CCN(C(=O)C5CC5)C4)cc3F)ccc2o1 [compound 463, 5-[4-(6-{[(3R)-1-(Cyclopropylcarbonyl)pyrrolidin-3-yl]methyl}-7-oxo-4,6-diazaspiro[2.4]hept-4-en-5-yl)-2-fluorophenyl]-1-benzofuran-2-carbonitrile] | 977 nM | 1910 nM | ~3800 nM | 7240 nM | > 10000 nM | 93% | 224 nM |

The next lines start with the values.

| IC50 [1] | IC50 [2] | IC50 (A2780 ovarian cells [3]) | IC50 [4] | IC50 (A2780 ovarian cells [5]) | inhibition at 10 µM [6] | IC50 [6] | Compound |
| --- | --- | --- | --- | --- | --- | --- | --- |
| 589 nM | 794 nM | ~1100 nM | 2820 nM | > 10000 nM | 101% | 138 nM | O=C(C1CC1)N1CC[C@@H](CN2C(=O)C3(CC3)N=C2c2ccc(-c3ccc4cc[nH]c4c3)cn2)C1 [compound 428, 6-{[(3R)-1-(Cyclopropylcarbonyl)pyrrolidin-3-yl]methyl}-5-[5-(1H-indol-6-yl)pyridin-2-yl]-4,6-diazaspiro[2.4]hept-4-en-7-one] |
| 832 nM | 2090 nM | 2190 nM | 8910 nM | > 10000 nM | 96% | 363 nM | O=C(C1CC1)N1CC(CN2C(=O)C3(CCN(C(=O)C(F)(F)F)CC3)N=C2c2ccc(-c3ccc4[nH]ccc4c3)cc2)C1 [compound 765, 3-{[1-(Cyclopropylcarbonyl)azetidin-3-yl]methyl}-2-[4-(1H-indol-5-yl)phenyl]-8-(trifluoroacetyl)-1,3,8-triazaspiro[4.5]dec-1-en-4-one] |
| 55 nM | 22.4 nM | ~28.2 nM | 81.3 nM | > 10000 nM | 99% | 15.1 nM | O=C(C1CC1)N1CC(CN2C(=O)C3(CC3)N=C2c2ccc(-c3ccc4cccc(F)c4c3)cc2F)C1 [compound 350, 6-((1-(cyclopropanecarbonyl)azetidin-3-yl)methyl)-5-(2-fluoro-4-(8-fluoronaphthalen-2-yl)phenyl)-4,6-diazaspiro[2.4]hept-4-en-7-one] |
| 53.7 nM | 77.6 nM | ~107 nM | 537 nM | > 10000 nM | 107% | 26.9 nM | Cc1cc(-c2ccc3sccc3c2)ccc1C1=NC2(CC2)C(=O)N1CC1CN(C(=O)C2CC2)C1 [compound 288] |
| 129 nM | 57.5 nM | ~74.1 nM | 631 nM | > 10000 nM | 96% | 85.1 nM | COCCN1CCC2(CC1)N=C(c1ccc(-c3ccc4[nH]ccc4c3)cc1)N(C[C@@H]1CCN(C(=O)C3CC3)C1)C2=O [compound 747, 3-{[(3R)-1-(Cyclopropylcarbonyl)pyrrolidin-3-yl]methyl}-2-[4-(1H-indol-5-yl)phenyl]-8-(2-methoxyethyl)-1,3,8-triazaspiro[4.5]dec-1-en-4-one] |
| 95.5 nM | ~417 nM | 832 nM | 2400 nM | > 10000 nM | 95% | 53.7 nM | N#Cc1cc2cc(-c3ccc(C4=NC5(CC5)C(=O)N4C[C@@H]4CCN(C(=O)C5CC5)C4)cc3)ccc2o1 [compound 256, (R)-5-(4-(6-((1-(cyclopropanecarbonyl)pyrrolidin-3-yl)methyl)-7-oxo-4,6-diazaspiro[2.4]hept-4-en-5-yl)phenyl)benzofuran-2-carbonitrile] |
| 1120 nM | ~2570 nM | 794 nM | 3470 nM | > 10000 nM | 98% | 229 nM | COc1ccc2ccc(-c3ccc(C4=NC5(CC5)C(=O)N4CC4CN(C(=O)C5CC5)C4)c(F)c3)cc2c1 [compound 618, 6-{[1-(Cyclopropylcarbonyl)azetidin-3-yl]methyl}-5-[2-fluoro-4-(7-methoxynaphthalen-2-yl)phenyl]-4,6-diazaspiro[2.4]hept-4-en-7-one] |
